Measured values published in patent US8399475B2, “Crystalline and amorphous forms of naltrexone hydrochloride” (Mallinckrodt LLC, priority 2007, dated 2013).

Test: Solid-state stability / form conversion under wet or high humidity conditions

Cl.O=C1CC[C@@]2(O)[C@H]3Cc4ccc(O)c5c4[C@@]2(CCN3CC2CC2)[C@H]1O5 [Form I, naltrexone hydrochloride]
humidity at which the form converts to Form II (exposure of solid to humidity): above 70% RH.

Cl.O=C1CC[C@@]2(O)[C@H]3Cc4ccc(O)c5c4[C@@]2(CCN3CC2CC2)[C@H]1O5 [Form II, naltrexone hydrochloride]
stability under wet and/or high humidity environments (compared with non-hydrated forms): more stable
